In article PMC12730722, “Identification and Functional Characterization of the Leg-Enriched Chemosensory Protein PxylCSP9 in Plutella xylostella (Lepidoptera: Plutellidae)” (Biology, 2025):

How the values were obtained:
P. xylostella [1] = tested on: P. xylostella; design: key to behavioral effect of plant volatile on P. xylostella (attractive / repellent): Refers to plant volatiles that are attractive to P. xylostella; b: Refers to plant volatiles that are repellent to P. xylostella; settings: cited from earlier work; for behavioral effect of plant volatile on P. xylostella (attractive / repellent): footnote marks of Table 2, ref 37,45,46,47,48 (a), ref 49,50,51 (b)
PxylCSP9 [2] = target: T1, PxylCSP9 (Plutella xylostella, UniProt A0A8S4FJE6); experiment: Binding of fluorescent probe Bis-ANS to PxylCSP9 (titration, Scatchard plot); settings: 1 μM protein, 50 mM Tris-HCl pH 7.4, probe 1 to 10 μM, read-out: dissociation constant of PxylCSP9/Bis-ANS complex
T1 sequence (A0A8S4FJE6 entry or part of it): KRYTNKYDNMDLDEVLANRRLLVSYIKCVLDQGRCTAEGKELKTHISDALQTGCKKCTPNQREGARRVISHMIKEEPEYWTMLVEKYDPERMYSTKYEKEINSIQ
Experimental: To identify the ligands that bind to PxylCSP9, we selected several typical chemical components from the host plants of P. xylostella for fluorescence competitive binding experiments. The purity of all ligands and the fluorescent probe 4,4′-dianilino-1,1′-binaphthyl-5,5′-sulfonate (Bis-ANS) was ≥95%, which was purchased from Aladdin (Shanghai, China) or Sigma-Aldrich (St. Louis, MO, USA.). All the compounds were dissolved individually in chromatography-grade methanol (Aladdin, Shanghai, China) to prepare 1 mM stock solutions. Fluorescence competitive binding assays were performed using an RF-5301 Fluorescence Spectrophotometer (Shimadzu, Kyoto, Japan) with a quartz cuvette of a 1 cm path length. The excitation and emission slit widths were both set to 5 nm. The excitation wavelength of the fluorescent probe was 365 nm, and the emission spectra were recorded from 400 to 580 nm.
The affinity of Bis-ANS for PxylCSP9 was measured by titrating a 1 μM solution of the protein in 50 mM Tris-HCl (pH 7.4) with aliquots of 1 mM Bis-ANS stock solution to final probe concentrations ranging from 1 to 10 μM. In competitive binding assays, the ligand concentrations ranging from 0 to 10 μM were added to a solution containing PxylCSP9 (1 μM) and Bis-ANS (1 μM). […]

P. xylostella [3] = tested on: P. xylostella; design: method as in doi:10.1111/j.1744-7917.2004.tb00178.x, doi:10.1111/jen.13144, PMID 29474734; settings: cited from earlier work
PxylCSP9 [4] = target: T1, PxylCSP9; experiment: Fluorescence competitive binding assay (Bis-ANS probe displacement)
Experimental: The purity of all ligands and the fluorescent probe 4,4′-dianilino-1,1′-binaphthyl-5,5′-sulfonate (Bis-ANS) was ≥95%, which was purchased from Aladdin (Shanghai, China) or Sigma-Aldrich (St. Louis, MO, USA.). All the compounds were dissolved individually in chromatography-grade methanol (Aladdin, Shanghai, China) to prepare 1 mM stock solutions. […] The excitation and emission slit widths were both set to 5 nm. The excitation wavelength of the fluorescent probe was 365 nm, and the emission spectra were recorded from 400 to 580 nm.
In competitive binding assays, the ligand concentrations ranging from 0 to 10 μM were added to a solution containing PxylCSP9 (1 μM) and Bis-ANS (1 μM). All data were analyzed based on the assumptions that the protein was 100% active and that binding followed a 1:1 stoichiometry (protein:ligand) at saturation. The binding curves for Bis-ANS were linearized using a Scatchard plot. The dissociation constants of the competitors were calculated from their corresponding IC50 values using the following equation: Ki = [IC50]/(1 + [Bis-ANS]/KBis-ANS), where IC50 is the ligand concentration that reduces the initial fluorescence intensity of Bis-ANS by half, [Bis-ANS] is the free concentration of Bis-ANS, and KBis-ANS is the dissociation constant of the PxylCSP9/Bis-ANS complex.

[5] = tested on: certain lepidopteran insects; design: method as in PMID 40195004, doi:10.1023/A:1020990018111, doi:10.1023/A:1020750029362; settings: cited from earlier work

In the case of `CCCCCCCCC=O` [1-Nonanal], the “behavioral effect of plant volatile on P. xylostella (attractive / repellent)” value (P. xylostella [1]) is given as 1-Nonanal ^a.

For `CCCC(C)CC(C)C` (centres unmarked) [2,4-Dimethylheptane], the “behavioral effect of plant volatile on P. xylostella (attractive / repellent)” value (P. xylostella [1]) is listed as 2,4-Dimethylheptane ^b.

For `CCCCCCCC(C)C` [2-Methylnonane], the “behavioral effect of plant volatile on P. xylostella (attractive / repellent)” value (P. xylostella [1]) is listed as 2-Methylnonane ^b.

In the case of `CCC/C=C/C=O` [(E)-2-Hexenal], the “behavioral effect of plant volatile on P. xylostella (attractive / repellent)” value (P. xylostella [1]) is given as “(E)-2-Hexenal ^a”.

For `C=C(C)[C@@H]1CC=C(C)C(=O)C1` [(R)-(-)-Carvone], the “behavioral effect of plant volatile on P. xylostella (attractive / repellent)” value (P. xylostella [1]) is listed as “(R)-(-)-Carvone ^b”.

In the case of `C=CCN=C=S` [Allyl isothiocyanate], the “feeding and oviposition behaviors in P. xylostella” value (P. xylostella [1]) is given as “induce feeding and oviposition behaviors”.

Molecule `O=S(=O)(O)c1cccc2c(-c3ccc(Nc4ccccc4)c4c(S(=O)(=O)O)cccc34)ccc(Nc3ccccc3)c12` [Bis-ANS, 4,4′-dianilino-1,1′-binaphthyl-5,5′-sulfonate] has a Kd (PxylCSP9 [2]) of 4.86 ± 0.04 µM.

For `C=C(C)C1CC=C(C)CC1` (centres unmarked) [Limonene], the “EAG response of P. xylostella” value (P. xylostella [3]) is given as “effectively stimulate the EAG response”, the “behavioral avoidance response of P. xylostella” value (P. xylostella [1]) is given as “significantly induce its behavioral avoidance response” and the oviposition deterrent effects (P. xylostella [1]) is given as “oviposition deterrent effects”. The “behavioral effect of plant volatile on P. xylostella (attractive / repellent)” value (P. xylostella [1]) was “Limonene ^b”.

In the case of `C=CC(C)(O)CCC=C(C)C` (centres unmarked) [Linalool], the “behavioral effect of plant volatile on P. xylostella (attractive / repellent)” value (P. xylostella [1]) is given as “Linalool ^b”.

With `CC(=O)CCC=C(C)C` [Methyl heptenone] the IC50 (PxylCSP9 [4]; PxylCSP9 1 μM, Bis-ANS 1 μM, 50 mM Tris-HCl pH 7.4, ligand concentration halving Bis-ANS fluorescence) was 20.1 ± 1.98 µM and the Ki (PxylCSP9 [4]; calculated from IC50: Ki = [IC50]/(1 + [Bis-ANS]/KBis-ANS)) was 17 µM.

For `C=CC(=C)CCC=C(C)C` [Myrcene], the “EAG response of P. xylostella” value (P. xylostella [3]) is given as “effectively stimulate the EAG response”, the “behavioral avoidance response of P. xylostella” value (P. xylostella [1]) is given as “significantly induce its behavioral avoidance response” and the “behavioral effect of plant volatile on P. xylostella (attractive / repellent)” value (P. xylostella [1]) is given as “Myrcene ^b”.

For `OCCc1ccccc1` [Phenethyl alcohol], the “EAG responses and attractive behaviors” value [5] is given as “elicit electroantennogram (EAG) responses and attractive behaviors” and the “behavioral effect of plant volatile on P. xylostella (attractive / repellent)” value (P. xylostella [1]) is given as “Phenethyl alcohol ^a”.

In the case of `CC1=CC=C(C(C)C)CC1` [α-Terpinene], the “EAG response of P. xylostella” value (P. xylostella [3]) is listed as “effectively stimulate the EAG response”, the “behavioral avoidance response of P. xylostella” value (P. xylostella [1]) is listed as “significantly induce its behavioral avoidance response” and the oviposition deterrent effects (P. xylostella [1]) is listed as “oviposition deterrent effects”. The “behavioral effect of plant volatile on P. xylostella (attractive / repellent)” value (P. xylostella [1]) was “α-Terpinene ^b”.
